The text below walks through data of patent publication US20250268859A1, “OXAFURAMINE, (1R)-N-ETHYL-1-[(2R)-OXOLAN-2-YL]-2-[…], HYDROCHLORIDE AND DERIVATIVES THEREOF FOR TREATING ALZHEIMER'S DISEASE (AD), […] […], […] WITH LEWY BODIES (DLB), MIXED […], FRON[…] DEGENERATION (FTLD), AND PARKINSON'S DISEASE (PD)” (NLS Pharmaceutics AG, priority 2021, published 2025).

Each structure is given as a SMILES string.

The inhibition is the relative decrease from the control value, in per cent. The low end stands for a response near the control, the high end for a response far below the control. In general, % Inhibition refers to the percentage by which the read-out fell short of the control. High values mean a strong effect, low ones a weak effect.

Data set [1] can be described thus: Body weight of the mice in the NOR study. Format: in vivo, C57BL/6J, male. The following applies: mean, N = 16. The text has this:
Statistical analyses: • Read-outs: DI, N-F, ST, CT, N, F • Unpaired Student's t test: Donep 2 group vs. Control group. • One-way ANOVA, Dunnett test: • NLS-12 groups vs. Control group. • NLS-12 groups vs. Donep 2 group. • Read-outs: DI and N-F, for all groups, paired Student's t test, difference vs. 0. • Body weight: one-way ANOVA.

A further data set addresses T1, M4 (h) (Homo sapiens, UniProt P08173).
T1 construct: Eurofins (contract panel)
T1 sequence (P08173 1-479): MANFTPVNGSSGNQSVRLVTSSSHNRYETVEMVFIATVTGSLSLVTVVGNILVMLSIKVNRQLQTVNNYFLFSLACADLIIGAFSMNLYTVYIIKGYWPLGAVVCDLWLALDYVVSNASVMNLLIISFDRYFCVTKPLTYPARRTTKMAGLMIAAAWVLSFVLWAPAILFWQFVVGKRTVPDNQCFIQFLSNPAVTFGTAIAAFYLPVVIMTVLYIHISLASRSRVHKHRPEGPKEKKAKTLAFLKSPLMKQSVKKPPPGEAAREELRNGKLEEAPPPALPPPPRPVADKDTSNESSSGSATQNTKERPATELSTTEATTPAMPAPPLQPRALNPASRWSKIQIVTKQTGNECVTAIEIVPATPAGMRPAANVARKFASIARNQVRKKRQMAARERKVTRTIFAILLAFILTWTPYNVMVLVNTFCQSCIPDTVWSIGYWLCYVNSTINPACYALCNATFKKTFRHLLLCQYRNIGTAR
Kind of data set: Radioligand binding panel, M4 (h) (antagonist radioligand). The following applies: % inhibition of control specific binding. The protocol:
(§1) Oxafuramine is tested at 10^−5 M, calculated as a % inhibition of control specific binding of a radioactively labeled ligand specific for each target.
(§2) This binding profile panel was broadly defined with roughly an equal number of selective, central and peripheral therapeutically relevant targets, including native animal tissues, radioligands and specific enzymes involved in cell cycle regulation in accordance with Eurofins Standard Operating Procedure (www.eurofins.fr).
(§3) For radioligand binding experiments, the half maximal inhibitory concentration (IC50) and the half maximal effective concentration (EC50) values were determined (via computer software) by nonlinear regression analysis of the competition curves using Hill equation curve fitting. The inhibition constants (Ki) were calculated using the Cheng-Prusoff equation (Ki=IC50/(1+(L/KD)), where L is the concentration of radioligand in the assay, and KD is the affinity of the radioligand for the receptor.
(§4) The results are expressed as a % control specific binding ([measured specific binding/control specific binding]×100) and as a % inhibition of control specific binding (100−[(measured specific binding/control specific binding)×100]) obtained in the presence of the test compounds. […]

In the next data set the target is T2, M1 (h) (Homo sapiens, UniProt P11229).
T2 construct: Eurofins (contract panel)
T2 sequence (P11229 1-460): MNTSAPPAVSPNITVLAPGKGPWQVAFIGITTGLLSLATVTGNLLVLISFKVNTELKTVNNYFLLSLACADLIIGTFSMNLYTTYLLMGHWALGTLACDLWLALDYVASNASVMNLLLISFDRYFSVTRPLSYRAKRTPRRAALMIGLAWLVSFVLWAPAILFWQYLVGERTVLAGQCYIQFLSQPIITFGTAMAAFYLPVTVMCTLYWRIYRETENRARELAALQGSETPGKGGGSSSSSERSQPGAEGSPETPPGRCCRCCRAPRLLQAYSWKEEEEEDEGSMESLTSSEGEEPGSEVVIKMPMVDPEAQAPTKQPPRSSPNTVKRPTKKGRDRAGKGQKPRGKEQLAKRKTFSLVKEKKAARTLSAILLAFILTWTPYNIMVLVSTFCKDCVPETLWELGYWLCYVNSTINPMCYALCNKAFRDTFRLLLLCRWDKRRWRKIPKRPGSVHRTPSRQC
Nature of the data set: Radioligand binding panel, M1 (h) (antagonist radioligand). The following applies: % inhibition of control specific binding. The protocol:
as §1, §2, §3, §4

A further data set has as its target T3, NET (h) (Homo sapiens, UniProt P23975).
T3 construct: Eurofins (contract panel)
Nature of the data set: Radioligand binding panel, NET (h) (antagonist radioligand). As to conditions: % inhibition of control specific binding. The protocol:
as §1, §2, §3, §4

T3 sequence (P23975 whole entry): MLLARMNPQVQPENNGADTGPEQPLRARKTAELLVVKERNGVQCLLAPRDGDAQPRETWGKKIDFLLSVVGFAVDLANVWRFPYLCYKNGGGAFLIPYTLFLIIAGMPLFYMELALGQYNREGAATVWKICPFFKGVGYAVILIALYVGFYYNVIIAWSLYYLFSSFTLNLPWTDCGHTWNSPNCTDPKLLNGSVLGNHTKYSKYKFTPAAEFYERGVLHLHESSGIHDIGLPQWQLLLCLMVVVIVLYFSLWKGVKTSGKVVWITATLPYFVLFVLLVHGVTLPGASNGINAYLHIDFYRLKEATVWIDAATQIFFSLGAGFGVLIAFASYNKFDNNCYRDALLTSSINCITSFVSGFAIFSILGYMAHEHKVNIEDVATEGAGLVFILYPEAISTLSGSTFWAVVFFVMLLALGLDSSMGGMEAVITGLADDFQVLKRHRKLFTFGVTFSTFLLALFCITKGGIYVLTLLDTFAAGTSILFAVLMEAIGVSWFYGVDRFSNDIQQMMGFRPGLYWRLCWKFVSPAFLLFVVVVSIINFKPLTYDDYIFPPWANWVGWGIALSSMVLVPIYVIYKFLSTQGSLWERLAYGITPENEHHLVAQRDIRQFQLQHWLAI

On to `CCN[C@H](Cc1ccccc1)[C@H]1CCCO1` [Oxafuramine, (1R)—N-ethyl-1-[(2R)-oxolan-2-yl]-2-phenylethanamine], for which the “BW Body weight” value turned out to be 22.8 g in data set [1] (NLS-12 1 mg/kg i.p. group), 23.5 g in data set [1] (NLS-12 4 mg/kg i.p. group) and 22.9 g in data set [1] (NLS-12 8 mg/kg i.p. group). Besides, the inhibition at 10 µM is around 51% at M4 (h) (10^−5 M), around 30% at M1 (h) (10^−5 M) and 53.3% at NET (h) (10^−5 M). Also, on M4 (h), the “% Inhibition at 10^−5M, M4 (h) (antagonist radioligand)” value was 50.8%. For the same compound, the “% Inhibition at 10^−5M, M1 (h) (antagonist radioligand)” value at M1 (h) stood at 29.7%. In addition, the “% Inhibition at 10^−5M, NET (h) (antagonist radioligand)” value at NET (h) is listed as “appreciable potencies”.
